# Values joined by “and” are separate entries in the source; they are usually repeats but may differ in a detail not shown here. Equal values may be shown once. Toxic doses and inconclusive results are not listed.
# Test system: P388 leukemia ip, CD2F1 mice, survival T/C
# Assay: NCI In Vivo Anticancer Drug Screen. Data for tumor model P388 Leukemia (intraperitoneal) in CD2F1 (CDF1) mice
# Details: endpoint: median survival time, higher = longer survival
# Outline: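 Mice carrying the transplanted tumor received test compound or vehicle. Survival was recorded in each group, and the value is the treated-group measurement divided by that of the vehicle-treated control group.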
compound,measurement,setting,value
Cc1[nH]c(=O)[nH]c(=O)c1N(CCF)CCCl,T/C,"dose: 0.5 mg/kg/injection, schedule: Q03HX024 (ip), vehicle: acid diluted with saline",101 % of control
same,T/C,"dose: 1.0 mg/kg/injection, schedule: Q03HX016 (ip), vehicle: acid diluted with saline",100 % of control
same,T/C,"dose: 1.0 mg/kg/injection, schedule: Q03HX024 (ip), vehicle: acid diluted with saline",105 % of control
same,T/C,"dose: 1.8 mg/kg/injection, schedule: Q01DX009 (ip), vehicle: saline with Tween-80",109 % of control
same,T/C,"dose: 2.0 mg/kg/injection, schedule: Q01DX009 (ip), vehicle: acid diluted with saline",110 % of control
same,T/C,"dose: 2.0 mg/kg/injection, schedule: Q01DX009 (sc), vehicle: acid diluted with saline",101 % of control
same,T/C,"dose: 2.0 mg/kg/injection, schedule: Q03HX008 (ip), vehicle: acid diluted with saline",105 % of control
same,T/C,"dose: 2.0 mg/kg/injection, schedule: Q03HX016 (ip), vehicle: acid diluted with saline",105 % of control
same,T/C,"dose: 2.0 mg/kg/injection, schedule: Q03HX024 (ip), vehicle: acid diluted with saline",108 % of control
same,T/C,"dose: 2.0 mg/kg/injection, schedule: Q03HX024 (oral), vehicle: acid diluted with saline",109 % of control
same,T/C,"dose: 2.0 mg/kg/injection, schedule: Q03HX024 (oral), vehicle: other",107 % of control
same,T/C,"dose: 3.0 mg/kg/injection, schedule: Q01DX009 (ip), vehicle: saline with Tween-80",109 % of control
same,T/C,"dose: 4.0 mg/kg/injection, schedule: Q01DX005 (ip), vehicle: Klucel (hydroxypropylcellulose) (HPC)",121 % of control
same,T/C,"dose: 4.0 mg/kg/injection, schedule: Q01DX005 (iv), vehicle: Klucel (hydroxypropylcellulose) (HPC)",102 % of control
same,T/C,"dose: 4.0 mg/kg/injection, schedule: Q01DX009 (ip), vehicle: acid diluted with saline",101 % of control
same,T/C,"dose: 4.0 mg/kg/injection, schedule: Q01DX009 (sc), vehicle: acid diluted with saline",103 % of control
same,T/C,"dose: 4.0 mg/kg/injection, schedule: Q03HX008 (ip), vehicle: acid diluted with saline",105 % of control
same,T/C,"dose: 4.0 mg/kg/injection, schedule: Q03HX008 (oral), vehicle: other",105 % of control
same,T/C,"dose: 4.0 mg/kg/injection, schedule: Q03HX016 (oral), vehicle: other",100 % of control
same,T/C,"dose: 4.0 mg/kg/injection, schedule: Q03HX024 (ip), vehicle: acid diluted with saline",112 % of control
same,T/C,"dose: 4.0 mg/kg/injection, schedule: Q03HX024 (oral), vehicle: acid diluted with saline",100 % of control
same,T/C,"dose: 4.0 mg/kg/injection, schedule: Q03HX024 (oral), vehicle: other",108 % of control
same,T/C,"dose: 4.0 mg/kg/injection, schedule: Q04DX003 (ip), vehicle: acid diluted with saline",106 % of control
same,T/C,"dose: 5.0 mg/kg/injection, schedule: Q01DX009 (ip), vehicle: saline with Tween-80",109 % of control
same,T/C,"dose: 6.25 mg/kg/injection, schedule: Q04DX003 (ip), vehicle: saline",104 % of control
same,T/C,"dose: 8.0 mg/kg/injection, schedule: Q01DX001 (ip), vehicle: acid diluted with saline",109 % of control
same,T/C,"dose: 8.0 mg/kg/injection, schedule: Q01DX001 (ip), vehicle: saline",118 % of control
same,T/C,"dose: 8.0 mg/kg/injection, schedule: Q01DX005 (iv), vehicle: Klucel (hydroxypropylcellulose) (HPC)",119 % of control
same,T/C,"dose: 8.0 mg/kg/injection, schedule: Q01DX009 (ip), vehicle: acid diluted with saline",116 % of control
same,T/C,"dose: 8.0 mg/kg/injection, schedule: Q01DX009 (oral), vehicle: acid diluted with saline",109 % of control
same,T/C,"dose: 8.0 mg/kg/injection, schedule: Q01DX009 (oral), vehicle: other",115 % of control
same,T/C,"dose: 8.0 mg/kg/injection, schedule: Q01DX009 (sc), vehicle: acid diluted with saline",108 % of control
same,T/C,"dose: 8.0 mg/kg/injection, schedule: Q03HX008 (ip), vehicle: acid diluted with saline",103 % of control
same,T/C,"dose: 8.0 mg/kg/injection, schedule: Q03HX008 (oral), vehicle: acid diluted with saline",109 % of control
same,T/C,"dose: 8.0 mg/kg/injection, schedule: Q03HX008 (oral), vehicle: other",106 % of control
same,T/C,"dose: 8.0 mg/kg/injection, schedule: Q03HX016 (ip), vehicle: acid diluted with saline",105 % of control
same,T/C,"dose: 8.0 mg/kg/injection, schedule: Q03HX016 (oral), vehicle: acid diluted with saline",100 % of control
same,T/C,"dose: 8.0 mg/kg/injection, schedule: Q03HX016 (oral), vehicle: other",106 % of control
same,T/C,"dose: 8.0 mg/kg/injection, schedule: Q03HX024 (oral), vehicle: acid diluted with saline",104 % of control
same,T/C,"dose: 8.0 mg/kg/injection, schedule: Q03HX024 (oral), vehicle: other",115 % of control
same,T/C,"dose: 8.0 mg/kg/injection, schedule: Q04DX003 (ip), vehicle: acid diluted with saline",112 % of control
same,T/C,"dose: 8.0 mg/kg/injection, schedule: Q08DX002 (ip), vehicle: acid diluted with saline",100 % of control
same,T/C,"dose: 12.5 mg/kg/injection, schedule: Q04DX003 (ip), vehicle: saline",122 % of control
same,T/C,"dose: 16.0 mg/kg/injection, schedule: Q01DX001 (ip), vehicle: acid diluted with saline",103 % of control and 118 % of control and 122 % of control
same,T/C,"dose: 16.0 mg/kg/injection, schedule: Q01DX001 (ip), vehicle: saline",122 % of control
same,T/C,"dose: 16.0 mg/kg/injection, schedule: Q01DX001 (sc), vehicle: acid diluted with saline",100 % of control
same,T/C,"dose: 16.0 mg/kg/injection, schedule: Q01DX005 (iv), vehicle: Klucel (hydroxypropylcellulose) (HPC)",121 % of control
same,T/C,"dose: 16.0 mg/kg/injection, schedule: Q01DX009 (ip), vehicle: acid diluted with saline",150 % of control
same,T/C,"dose: 16.0 mg/kg/injection, schedule: Q01DX009 (oral), vehicle: acid diluted with saline",113 % of control
same,T/C,"dose: 16.0 mg/kg/injection, schedule: Q01DX009 (oral), vehicle: other",115 % of control
same,T/C,"dose: 16.0 mg/kg/injection, schedule: Q01DX009 (sc), vehicle: acid diluted with saline",123 % of control
same,T/C,"dose: 16.0 mg/kg/injection, schedule: Q03HX008 (ip), vehicle: acid diluted with saline",106 % of control
same,T/C,"dose: 16.0 mg/kg/injection, schedule: Q03HX008 (oral), vehicle: acid diluted with saline",109 % of control
same,T/C,"dose: 16.0 mg/kg/injection, schedule: Q03HX008 (oral), vehicle: other",106 % of control
same,T/C,"dose: 16.0 mg/kg/injection, schedule: Q03HX016 (ip), vehicle: acid diluted with saline",105 % of control
same,T/C,"dose: 16.0 mg/kg/injection, schedule: Q03HX016 (oral), vehicle: acid diluted with saline",109 % of control
same,T/C,"dose: 16.0 mg/kg/injection, schedule: Q03HX024 (oral), vehicle: acid diluted with saline",109 % of control
same,T/C,"dose: 16.0 mg/kg/injection, schedule: Q03HX024 (oral), vehicle: other",100 % of control
same,T/C,"dose: 16.0 mg/kg/injection, schedule: Q04DX003 (ip), vehicle: acid diluted with saline",108 % of control
same,T/C,"dose: 16.0 mg/kg/injection, schedule: Q04DX003 (oral), vehicle: acid diluted with saline",113 % of control
same,T/C,"dose: 16.0 mg/kg/injection, schedule: Q04DX003 (oral), vehicle: other",111 % of control
same,T/C,"dose: 16.0 mg/kg/injection, schedule: Q08DX002 (ip), vehicle: acid diluted with saline",101 % of control
same,T/C,"dose: 23.0 mg/kg/injection, schedule: Q01DX009 (ip), vehicle: saline with Tween-80",150 % of control
same,T/C,"dose: 25.0 mg/kg/injection, schedule: Q04DX003 (ip), vehicle: saline",163 % of control
same,T/C,"dose: 32.0 mg/kg/injection, schedule: Q01DX001 (ip), vehicle: acid diluted with saline",103 % of control
same,T/C,"dose: 32.0 mg/kg/injection, schedule: Q01DX001 (ip), vehicle: saline",154 % of control
same,T/C,"dose: 32.0 mg/kg/injection, schedule: Q01DX001 (oral), vehicle: other",106 % of control
same,T/C,"dose: 32.0 mg/kg/injection, schedule: Q01DX001 (sc), vehicle: acid diluted with saline",99 % of control
same,T/C,"dose: 32.0 mg/kg/injection, schedule: Q01DX009 (ip), vehicle: acid diluted with saline",158 % of control
same,T/C,"dose: 32.0 mg/kg/injection, schedule: Q01DX009 (oral), vehicle: acid diluted with saline",118 % of control
same,T/C,"dose: 32.0 mg/kg/injection, schedule: Q03HX008 (ip), vehicle: acid diluted with saline",107 % of control
same,T/C,"dose: 32.0 mg/kg/injection, schedule: Q03HX016 (oral), vehicle: acid diluted with saline",109 % of control
same,T/C,"dose: 32.0 mg/kg/injection, schedule: Q04DX003 (ip), vehicle: acid diluted with saline",123 % of control
same,T/C,"dose: 32.0 mg/kg/injection, schedule: Q04DX003 (oral), vehicle: acid diluted with saline",109 % of control
same,T/C,"dose: 32.0 mg/kg/injection, schedule: Q04DX003 (oral), vehicle: other",108 % of control
same,T/C,"dose: 32.0 mg/kg/injection, schedule: Q08DX002 (ip), vehicle: acid diluted with saline",101 % of control
same,T/C,"dose: 32.0 mg/kg/injection, schedule: Q08DX002 (oral), vehicle: other",114 % of control
same,T/C,"dose: 64.0 mg/kg/injection, schedule: Q01DX001 (ip), vehicle: saline",159 % of control
same,T/C,"dose: 64.0 mg/kg/injection, schedule: Q01DX001 (oral), vehicle: acid diluted with saline",109 % of control
same,T/C,"dose: 64.0 mg/kg/injection, schedule: Q01DX001 (oral), vehicle: other",108 % of control
same,T/C,"dose: 64.0 mg/kg/injection, schedule: Q01DX001 (sc), vehicle: acid diluted with saline",100 % of control
same,T/C,"dose: 64.0 mg/kg/injection, schedule: Q04DX003 (oral), vehicle: acid diluted with saline",109 % of control
same,T/C,"dose: 64.0 mg/kg/injection, schedule: Q04DX003 (oral), vehicle: other",124 % of control
same,T/C,"dose: 64.0 mg/kg/injection, schedule: Q08DX002 (oral), vehicle: acid diluted with saline",109 % of control
same,T/C,"dose: 64.0 mg/kg/injection, schedule: Q08DX002 (oral), vehicle: other",115 % of control
same,T/C,"dose: 128.0 mg/kg/injection, schedule: Q01DX001 (oral), vehicle: acid diluted with saline",109 % of control
same,T/C,"dose: 128.0 mg/kg/injection, schedule: Q01DX001 (sc), vehicle: acid diluted with saline",99 % of control
same,T/C,"dose: 128.0 mg/kg/injection, schedule: Q01DX009 (oral), vehicle: acid diluted with saline",118 % of control
same,T/C,"dose: 128.0 mg/kg/injection, schedule: Q08DX002 (oral), vehicle: acid diluted with saline",100 % of control
same,T/C,"dose: 256.0 mg/kg/injection, schedule: Q01DX001 (oral), vehicle: acid diluted with saline",109 % of control
same,T/C,"dose: 256.0 mg/kg/injection, schedule: Q01DX001 (sc), vehicle: acid diluted with saline",100 % of control
same,T/C,"dose: 256.0 mg/kg/injection, schedule: Q04DX003 (oral), vehicle: acid diluted with saline",118 % of control
same,T/C,"dose: 256.0 mg/kg/injection, schedule: Q08DX002 (oral), vehicle: acid diluted with saline",104 % of control
same,T/C,"dose: 512.0 mg/kg/injection, schedule: Q01DX001 (oral), vehicle: acid diluted with saline",113 % of control
same,T/C,"dose: 512.0 mg/kg/injection, schedule: Q08DX002 (oral), vehicle: acid diluted with saline",109 % of control
